Article PMC9981719, “A novel designed membrane-active peptide for the control of foodborne Salmonella enterica serovar Typhimurium” (Scientific Reports, 2023)
Entries after “also recorded” stand apart in the source; their conditions may differ. Where no end group is shown, it is not given here.

Columns and labels:
[1] = tested on: S. Typhimurium ATCC 13311; type: cell-based, Salmonella enterica serovar Typhimurium; details: ATCC 13311, 24 h
Description: Two-fold serial dilutions (0.98–250 μg/ml) of A11 with various concentrations of MgCl2 and NaCl (1 mM MgCl2, 5 mM MgCl2, 1% NaCl, 3% NaCl, 5% NaCl and 10% NaCl) were prepared and incubated at 37 °C for 60 min. Then, 50 μl of A11 in different salt concentrations were incubated with 50 μl of S. Typhimurium ATCC 13311 suspension (approximately 1 × 10^7 CFU/ml) at 37 °C with shaking. After 24 h, MICs were determined; all experiments were done in triplicate.

S. Typhimurium ATCC13311 [2] = type: cell-based, Salmonella enterica serovar Typhimurium; details: at MIC and 2 × MIC
Description: Bacterial killing kinetics of A11 were investigated against S. Typhimurium as described previously. S. Typhimurium ATCC13311 was grown in TSB at 37 °C until reaching the exponential phase. […] The mixture was sampled at 1, 2, 4, 6, 8, 12 and 24 h, and subsequently tenfold serially diluted in 1 × PBS and plated in triplicate on Mueller–Hinton agar (MHA). After incubation at 37 °C for 24 h, the colonies were counted and CFU/ml was calculated. The tests were done in three independent experiments.

4,5,12:i:- H2-089 [3] = details: checkerboard, TSB, 37 °C, 24 h
Description: (§1) Effects of the combination of A11 with nisin against S. Typhimurium ATCC 13311 and 10 drug-resistant S. Typhimurium and S. enterica isolates were determined by the checkerboard titration method. Briefly, 10 drug-resistant S. Typhimurium were grown to a concentration of 1 × 10^7 CFU/ml in fresh TSB. Aliquots (25 µl) of nisin (final concentrations of 0.5–16 mg/ml) and A11 (final concentrations of 0.98–250 µg/ml) were added into 96-well plates containing 50 µl of bacterial suspension and cultured at 37 °C. […] ICA is the concentration required to produce the same effect as compound A when used alone, ICB is the concentration required to produce the same effect as compound B when used alone. The CI results were interpreted as follows: a CI of less than 1 indicates synergistic effect, a CI equal to 1 indicates additive effect, and a CI of more than 1 indicates antagonistic effect.

4,5,12:i:- H2-039 = details: checkerboard, TSB, 37 °C, 24 h
Description: as §1

4,5,12:i:- H2-042 = details: checkerboard, TSB, 37 °C, 24 h
Description: as §1

S. Typhimurium H1-006 = details: checkerboard, TSB, 37 °C, 24 h
Description: as §1

S. Typhimurium H1-062 = details: checkerboard, TSB, 37 °C, 24 h
Description: as §1

S. Typhimurium H1-001 [4] = details: checkerboard, TSB, 37 °C, 24 h
Description: as §1

S. Typhimurium ATCC13311 [5] = details: checkerboard, TSB, 37 °C, 24 h
Description: as §1

S. Typhimurium H1-011 [6] = details: checkerboard, TSB, 37 °C, 24 h
Description: as §1

S. Typhimurium H1-015 [7] = details: checkerboard, TSB, 37 °C, 24 h
Description: as §1

S. Typhimurium H1-041 = details: checkerboard, TSB, 37 °C, 24 h
Description: as §1

4,5,12:i:- H1-100 = details: checkerboard, TSB, 37 °C, 24 h
Description: as §1

S. Typhimurium H1-001 [8] = type: cell-based, Salmonella enterica serovar Typhimurium; details: strain H1-001
Source text: (§2) All tests were done in triplicate.

[9] = tested on: Salmonella Typhimurium ATCC 13311; type: cell-based, Salmonella enterica serovar Typhimurium; details: ATCC 13311, 18 h
Source text: as §2

S. Typhimurium H1-011 [10] = type: cell-based, Salmonella enterica serovar Typhimurium; details: strain H1-011
Source text: as §2

S. Typhimurium H1-015 [11] = type: cell-based, Salmonella enterica serovar Typhimurium; details: strain H1-015
Source text: as §2

4,5,12:i:- H2-089 [12] = type: cell-based, Salmonella enterica 4,5,12:i:-; details: strain H2-089
Source text: as §2

4,5,12:i:- H2-071 = type: cell-based, Salmonella enterica 4,5,12:i:-; details: strain H2-071
Source text: as §2

4,5,12:i:- H2-049 = type: cell-based, Salmonella enterica 4,5,12:i:-; details: strain H2-049
Source text: as §2

4,5,12:i:- H2-010 = type: cell-based, Salmonella enterica 4,5,12:i:-; details: strain H2-010
Source text: as §2

[13] = tested on: L929 mouse fibroblast cells; experiment: In vitro cytotoxicity, MTT assay; type: cell-based; details: 0.98–250 µg/ml, 24 h
Description: The cytotoxicity of A11 was evaluated by the 3-(4,5 dimethylthiazol-2-yl)-2,5-diphenyltetrazolium bromide (MTT) assay. L929 mouse fibroblast cells were cultured in Dulbecco's Modified Eagle Medium (DMEM) supplemented with 1% (v/v) of 100 IU/ml penicillin/streptomycin and 10% (v/v) fetal bovine serum (FBS). The cells were maintained in an air atmosphere containing the 5% CO2 under high humidity at 37 °C. L929 cell lines were seeded into a sterile 96-well plate (1 × 10^4 cells/well) then incubated overnight and treated with different concentrations of A11 (0.98–250 µg/ml) for 24 h. Media were removed, and cultured cells were incubated with 100 µl of MTT solution (4 mg/ml) for 4 h at 37 °C. After removal of MTT solution, the formed formazan was dissolved in 100 µl DMSO. Absorbance was measured by microplate reader at 570 nm; untreated cells served as negative control and melittin-treated cells as a positive control. Cell viability was determined following this equation: Cell viability%=ODTreated/ODControl×100

WVKKVARKVVKIGRKVAR-NH2 [A11]
MIC in 1 mM MgCl2 [1]: 15.63 µg/mL
MIC in 5 mM MgCl2 [1]: 31.25 µg/mL
MIC in 1% NaCl [1]: 15.63 µg/mL
MIC in 3% NaCl [1]: 125 µg/mL
MIC in 5% NaCl [1]: 250 µg/mL
MIC in 10% NaCl [1]: > 250 µg/mL
killing of S. Typhimurium within 6 h (S. Typhimurium ATCC13311 [2]): more than 99%
MIC (alone) (4,5,12:i:- H2-089 [3]): 62.5 µg/mL
MIC (alone) (4,5,12:i:- H2-039): 62.5 µg/mL
MIC (alone) (4,5,12:i:- H2-042): 62.5 µg/mL
MIC (alone) (S. Typhimurium H1-006): 125 µg/mL
MIC (alone) (S. Typhimurium H1-062): 125 µg/mL
MIC (alone) (S. Typhimurium H1-001 [4]): 62.5 µg/mL
MIC (alone) (S. Typhimurium ATCC13311 [5]): 15.63 µg/mL
MIC (alone) (S. Typhimurium H1-011 [6]): 62.5 µg/mL
MIC (alone) (S. Typhimurium H1-015 [7]): 62.5 µg/mL
MIC (alone) (S. Typhimurium H1-041): 125 µg/mL
MIC (alone) (4,5,12:i:- H1-100): 62.5 µg/mL
MBC (S. Typhimurium H1-001 [8]): 125 µg/mL
MIC (S. Typhimurium H1-001 [8]): 62.5 µg/mL
MIC, Control [9]: 15.63 µg/mL
MBC (S. Typhimurium H1-011 [10]): 62.5 (62.5) µg/ml
MIC (S. Typhimurium H1-011 [10]): 62.5 (62.5) µg/ml
MBC (S. Typhimurium H1-015 [11]): 62.5 (62.5) µg/ml
MIC (S. Typhimurium H1-015 [11]): 62.5 (62.5) µg/ml
MBC (4,5,12:i:- H2-089 [12]): 125 µg/mL
MIC (4,5,12:i:- H2-089 [12]): 62.5 µg/mL
MBC (4,5,12:i:- H2-071): 125 (125) µg/ml
MIC (4,5,12:i:- H2-071): 125 (125) µg/ml
MBC (4,5,12:i:- H2-049): 125 µg/mL
MIC (4,5,12:i:- H2-049): 62.5 µg/mL
MBC (4,5,12:i:- H2-010): 62.5 (62.5) µg/ml
MIC (4,5,12:i:- H2-010): 62.5 (62.5) µg/ml
cytotoxicity toward L929 cells (cell viability, MTT) [13]: no cytotoxic activity; also recorded: no cytotoxic effect
